Tests used:
Assay in all cases: relative viability (nuclei count vs DMSO), 5 days (fraction); higher = more cells survive
GSK126 + Crizotinib = compound: CC[C@H](C)N1C=C(C2=C(C=C(C=C21)C3=CN=C(C=C3)N4CCNCC4)C(=O)NCC5=C(C=C(NC5=O)C)C)C [GSK126] + C[C@@H](Oc1cc(-c2cnn(C3CCNCC3)c2)cnc1N)c1c(Cl)ccc(F)c1Cl [Crizotinib] (partner 1 µM)
In short: (§1)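 Relative viability was taken as the ratio of nuclei in treated wells to nuclei in vehicle wells. Lung cancer cell lines in 1536-well plates received compounds by pin tool one day after seeding, either one drug alone or a fixed anchor-drug dose plus five library-drug doses (not always all listed) in √10 steps. Nuclei were counted on 4× images after 5 days of treatment, and values are medians of duplicate plates.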

GSK126 + Dasatinib = compound: CC[C@H](C)N1C=C(C2=C(C=C(C=C21)C3=CN=C(C=C3)N4CCNCC4)C(=O)NCC5=C(C=C(NC5=O)C)C)C [GSK126] + Cc1nc(Nc2ncc(C(=O)Nc3c(C)cccc3Cl)s2)cc(N2CCN(CCO)CC2)n1 [Dasatinib] (partner 0.075 µM)
In short: as §1

GSK126 + Bortezomib = compound: CC[C@H](C)N1C=C(C2=C(C=C(C=C21)C3=CN=C(C=C3)N4CCNCC4)C(=O)NCC5=C(C=C(NC5=O)C)C)C [GSK126] + CC(C)C[C@H](NC(=O)[C@H](Cc1ccccc1)NC(=O)c1cnccn1)B(O)O [Bortezomib] (partner 0.002 µM)
In short: as §1

Carboplatin + Bortezomib = compound: C1CC(C1)(C(=O)O)C(=O)O.[NH2-].[NH2-].[Pt+2] [Carboplatin] + CC(C)C[C@H](NC(=O)[C@H](Cc1ccccc1)NC(=O)c1cnccn1)B(O)O [Bortezomib] (partner 0.002 µM)
In short: as §1

Cell Line | relative viability (GSK126 + Crizotinib; first compound 0.08 µM) | relative viability (GSK126 + Crizotinib; first compound 0.253 µM) | relative viability (GSK126 + Crizotinib; first compound 0.8 µM) | relative viability (GSK126 + Crizotinib; first compound 2.53 µM) | relative viability (GSK126 + Crizotinib; first compound 8 µM) | relative viability (GSK126 + Dasatinib; first compound 0.08 µM) | relative viability (GSK126 + Dasatinib; first compound 0.253 µM) | relative viability (GSK126 + Dasatinib; first compound 0.8 µM) | relative viability (GSK126 + Dasatinib; first compound 2.53 µM) | relative viability (GSK126 + Dasatinib; first compound 8 µM) | relative viability (GSK126 + Bortezomib; first compound 0.08 µM) | relative viability (GSK126 + Bortezomib; first compound 0.253 µM) | relative viability (GSK126 + Bortezomib; first compound 0.8 µM) | relative viability (GSK126 + Bortezomib; first compound 2.53 µM) | relative viability (GSK126 + Bortezomib; first compound 8 µM) | relative viability (Carboplatin + Bortezomib; first compound 0.08 µM) | relative viability (Carboplatin + Bortezomib; first compound 0.253 µM) | relative viability (Carboplatin + Bortezomib; first compound 0.8 µM) | relative viability (Carboplatin + Bortezomib; first compound 2.53 µM) | relative viability (Carboplatin + Bortezomib; first compound 8 µM)
PC-14 | 0.839 | 0.989 | 0.922 | 0.892 | 0.799 | 0.261 | 0.236 | 0.231 | 0.255 | 0.222 | 0.774 | 0.943 | 0.895 | 0.781 | 0.782 | 0.846 | 0.845 | 0.757 | 0.868 | 0.437
HCC-15 | 0.882 | 0.873 | 0.786 | 0.748 | 0.709 | 0.728 | 0.671 | 0.578 | 0.609 | 0.653 | 1.04 | 1.1 | 0.974 | 0.957 | 0.975 | 1.1 | 1.05 | 0.999 | 0.914 | 0.795
NCI-H2347 | 0.706 | 0.667 | 0.658 | 0.708 | 0.559 | 0.257 | 0.331 | 0.347 | 0.305 | 0.304 | 0.931 | 0.924 | 0.917 | 1.36 | 0.89 | 1.22 | 0.815 | 1.13 | 1.05 | 0.768
LOU-NH91 | 0.759 | 0.71 | 0.737 | 0.773 | 0.727 | 0.552 | 0.609 | 0.538 | 0.594 | 0.567 | 0.444 | 0.475 | 0.498 | 0.439 | 0.501 | 0.581 | 0.52 | 0.54 | 0.472 | 0.495
LCLC-103H | 1.07 | 1.18 | 1.01 | 1.01 | 1 | 0.485 | 0.45 | 0.464 | 0.447 | 0.51 | 1.23 | 0.995 | 0.984 | 1.13 | 1.03 | 1.13 | 1.33 | 1.06 | 1.24 | 1
EMC-BAC-2 | 0.772 | 0.765 | 0.718 | 0.723 | 0.701 | 0.346 | 0.339 | 0.176 | 0.259 | 0.332 | 1.02 | 1.04 | 1.05 | 1.03 | 1.05 | 1.14 | 1.02 | 1.13 | 1.05 | 0.957
NCI-H2228 | 0.547 | 0.492 | 0.368 | 0.573 | 0.458 | 0.597 | 0.513 | 0.522 | 0.562 | 0.493 | 1.01 | 0.787 | 0.763 | 1.08 | 1.05 | 1.05 | 1.35 | 1.07 | 0.905 | 0.467
HOP-62 | 0.965 | 0.996 | 0.788 | 0.726 | 0.928 | 0.829 | 0.583 | 0.636 | 0.566 | 0.595 | 0.645 | 0.816 | 0.862 | 0.837 | 0.724 | 0.922 | 0.87 | 0.593 | 0.668 | 0.603
NCI-H727 | 0.923 | 0.755 | 0.806 | 0.836 | 0.815 | 0.353 | 0.36 | 0.39 | 0.416 | 0.348 | 1.02 | 0.78 | 0.899 | 0.854 | 0.88 | 1.08 | 1.01 | 0.88 | 0.774 | 0.471
COR-L 105 | 0.859 | 0.935 | 0.783 | 0.687 | 0.62 | 0.356 | 0.331 | 0.342 | 0.288 | 0.398 | 1.03 | 0.718 | 0.773 | 0.786 | 0.748 | 0.89 | 0.745 | 0.832 | 0.794 | 0.424
NCI-H358 | 0.733 | 0.577 | 0.667 | 0.608 | 0.395 | 0.202 | 0.167 | 0.173 | 0.15 | 0.175 | – | – | – | – | – | – | – | – | – | –
SK-MES-1 | 1.01 | 0.971 | 0.931 | 0.925 | 1.05 | 0.446 | 0.47 | 0.307 | 0.305 | 0.373 | – | – | – | – | – | – | – | – | – | –
LC-2-ad | 0.484 | 0.357 | 0.512 | 0.454 | 0.398 | 0.606 | 0.66 | 0.565 | 0.643 | 0.585 | 1.03 | 1.04 | 0.935 | 1.02 | 0.986 | 1.09 | 1.1 | 1.11 | 0.985 | 0.831
H3255 | 1.02 | 0.814 | 0.819 | 0.866 | 0.794 | 0.396 | 0.383 | 0.393 | 0.419 | 0.346 | 0.729 | 0.731 | 0.683 | 0.802 | 0.879 | 0.832 | 0.762 | 0.874 | 0.865 | 0.526
A-427 | 0.898 | 1.01 | 0.857 | 0.856 | 0.84 | 0.76 | 0.638 | 0.634 | 0.799 | 0.635 | 1.06 | 0.977 | 1.02 | 0.989 | 0.973 | 0.984 | 1.11 | 0.904 | 0.905 | 1.01
NCI-H661 | 0.924 | 1.04 | 0.967 | 0.787 | 0.787 | 1.11 | 0.745 | 0.755 | 0.664 | 0.653 | 1 | 0.88 | 0.808 | 0.926 | 0.632 | 0.915 | 0.856 | 0.716 | 0.613 | 0.763
NCI-H1993 | 0.912 | 0.768 | 0.924 | 0.865 | 0.941 | 0.701 | 0.598 | 0.375 | 0.703 | 0.646 | 1.23 | 1.06 | 1.11 | 1.04 | 0.995 | 1.14 | 1.16 | 0.915 | 0.928 | 0.908
